Assay results: ChEMBL document CHEMBL5291721, “A preclinical secondary pharmacology resource illuminates target-adverse drug reaction associations of marketed drugs” (Nat Commun, 2023)
Blank lines part the entries; values can stand above or below the compound they belong to.

Key:
[1] = molecular target: T1, Alpha-2A adrenergic receptor (Homo sapiens, UniProt P08913)
T1 sequence (P08913 whole entry): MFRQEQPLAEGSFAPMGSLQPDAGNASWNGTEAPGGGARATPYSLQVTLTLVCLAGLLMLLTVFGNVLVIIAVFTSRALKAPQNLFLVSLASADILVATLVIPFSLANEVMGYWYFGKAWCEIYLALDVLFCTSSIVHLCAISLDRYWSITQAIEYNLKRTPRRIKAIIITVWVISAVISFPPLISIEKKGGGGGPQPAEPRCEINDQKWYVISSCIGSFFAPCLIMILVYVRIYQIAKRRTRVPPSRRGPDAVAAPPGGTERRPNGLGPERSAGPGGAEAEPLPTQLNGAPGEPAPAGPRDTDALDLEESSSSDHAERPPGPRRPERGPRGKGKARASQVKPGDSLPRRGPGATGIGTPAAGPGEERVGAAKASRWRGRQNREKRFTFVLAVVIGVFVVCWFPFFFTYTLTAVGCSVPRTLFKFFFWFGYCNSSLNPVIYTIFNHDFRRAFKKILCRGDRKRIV

Thromboxane A2 receptor = molecular target: T2, Thromboxane A2 receptor (Homo sapiens, UniProt P21731); format: functional, cell-based
T2 sequence (P21731 whole entry): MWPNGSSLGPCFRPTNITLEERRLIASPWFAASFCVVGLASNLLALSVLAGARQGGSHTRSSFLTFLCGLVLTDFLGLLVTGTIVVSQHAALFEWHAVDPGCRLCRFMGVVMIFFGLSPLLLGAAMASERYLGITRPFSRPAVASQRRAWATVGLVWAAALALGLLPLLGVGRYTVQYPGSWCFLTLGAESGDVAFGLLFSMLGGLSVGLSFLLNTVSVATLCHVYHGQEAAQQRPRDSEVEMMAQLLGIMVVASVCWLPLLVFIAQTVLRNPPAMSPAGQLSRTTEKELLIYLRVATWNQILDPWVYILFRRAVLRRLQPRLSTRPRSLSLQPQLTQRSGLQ

[2] = molecular target: T3, Retinoic acid receptor alpha (Homo sapiens, UniProt P10276); format: functional, cell-based
T3 sequence (P10276 whole entry): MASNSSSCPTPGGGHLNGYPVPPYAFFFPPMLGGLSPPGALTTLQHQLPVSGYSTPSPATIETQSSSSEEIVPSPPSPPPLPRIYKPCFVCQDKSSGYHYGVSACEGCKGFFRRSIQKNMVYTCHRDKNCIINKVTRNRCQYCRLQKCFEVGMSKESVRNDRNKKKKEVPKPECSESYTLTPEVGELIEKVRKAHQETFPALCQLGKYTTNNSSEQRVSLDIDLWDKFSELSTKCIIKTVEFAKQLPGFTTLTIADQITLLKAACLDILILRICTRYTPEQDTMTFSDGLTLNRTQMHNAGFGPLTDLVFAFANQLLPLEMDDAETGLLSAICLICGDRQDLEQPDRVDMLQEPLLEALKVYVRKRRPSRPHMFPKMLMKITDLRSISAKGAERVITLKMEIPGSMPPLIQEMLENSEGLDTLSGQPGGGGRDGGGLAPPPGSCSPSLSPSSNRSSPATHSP

[3] = molecular target: T4, Oxysterols receptor LXR-beta (Homo sapiens, UniProt P55055); format: functional
T4 sequence (P55055 whole entry): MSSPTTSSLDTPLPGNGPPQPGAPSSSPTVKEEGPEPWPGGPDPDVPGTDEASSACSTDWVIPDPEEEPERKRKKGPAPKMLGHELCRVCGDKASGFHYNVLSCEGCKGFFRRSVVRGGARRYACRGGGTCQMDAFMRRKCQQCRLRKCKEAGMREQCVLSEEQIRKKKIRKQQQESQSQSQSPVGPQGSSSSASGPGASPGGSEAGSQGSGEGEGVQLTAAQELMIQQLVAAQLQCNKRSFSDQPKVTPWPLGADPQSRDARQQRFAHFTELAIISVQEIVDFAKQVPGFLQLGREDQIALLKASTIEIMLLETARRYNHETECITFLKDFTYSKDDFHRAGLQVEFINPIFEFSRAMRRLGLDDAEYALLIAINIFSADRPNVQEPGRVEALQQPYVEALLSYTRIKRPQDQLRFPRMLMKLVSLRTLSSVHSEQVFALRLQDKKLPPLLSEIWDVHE

[4] = molecular target: T5, Retinoic acid receptor gamma (Homo sapiens, UniProt P13631); format: functional, cell-based
T5 sequence (P13631 whole entry): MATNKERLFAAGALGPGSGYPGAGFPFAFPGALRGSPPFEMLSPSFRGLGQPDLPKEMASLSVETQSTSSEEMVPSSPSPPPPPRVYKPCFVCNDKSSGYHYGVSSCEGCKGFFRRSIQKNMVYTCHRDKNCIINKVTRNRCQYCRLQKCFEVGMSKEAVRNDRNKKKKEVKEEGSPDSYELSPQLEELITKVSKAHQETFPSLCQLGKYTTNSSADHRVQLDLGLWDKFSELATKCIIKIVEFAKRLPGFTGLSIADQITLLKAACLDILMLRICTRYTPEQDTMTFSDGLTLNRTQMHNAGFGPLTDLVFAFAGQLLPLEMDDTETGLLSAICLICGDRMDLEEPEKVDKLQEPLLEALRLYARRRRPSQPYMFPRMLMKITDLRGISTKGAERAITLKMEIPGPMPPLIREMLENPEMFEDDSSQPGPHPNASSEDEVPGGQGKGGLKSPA

[5] = molecular target: T3, Retinoic acid receptor alpha; format: functional, cell-based; remark: listed apart in the source
[6] = molecular target: T6, Retinoic acid receptor beta (Homo sapiens, UniProt P10826); format: functional, cell-based
T6 sequence (P10826 whole entry): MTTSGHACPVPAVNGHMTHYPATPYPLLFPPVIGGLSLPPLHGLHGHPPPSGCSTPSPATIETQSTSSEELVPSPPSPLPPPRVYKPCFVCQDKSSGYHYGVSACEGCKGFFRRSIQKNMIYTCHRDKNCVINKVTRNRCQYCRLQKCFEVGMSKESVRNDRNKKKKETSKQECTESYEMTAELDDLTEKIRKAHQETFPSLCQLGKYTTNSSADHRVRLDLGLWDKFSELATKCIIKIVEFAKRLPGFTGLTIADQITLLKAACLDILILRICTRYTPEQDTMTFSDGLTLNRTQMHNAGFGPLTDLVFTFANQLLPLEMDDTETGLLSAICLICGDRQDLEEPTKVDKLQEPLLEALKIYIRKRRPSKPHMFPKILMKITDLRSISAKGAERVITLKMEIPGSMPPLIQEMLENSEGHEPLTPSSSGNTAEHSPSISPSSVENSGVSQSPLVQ

[7] = molecular target: T6, Retinoic acid receptor beta; format: functional, cell-based; remark: listed apart in the source
[8] = molecular target: Rod cGMP-specific 3',5'-cyclic phosphodiesterase subunit alpha (Homo sapiens, UniProt P16499); format: functional
D(1B) dopamine receptor = D(1B) dopamine receptor (Homo sapiens, UniProt P21918)
Also: assay procedure not described here.

Sequence of Rod cGMP-specific 3',5'-cyclic phosphodiesterase subunit alpha (P16499 whole entry): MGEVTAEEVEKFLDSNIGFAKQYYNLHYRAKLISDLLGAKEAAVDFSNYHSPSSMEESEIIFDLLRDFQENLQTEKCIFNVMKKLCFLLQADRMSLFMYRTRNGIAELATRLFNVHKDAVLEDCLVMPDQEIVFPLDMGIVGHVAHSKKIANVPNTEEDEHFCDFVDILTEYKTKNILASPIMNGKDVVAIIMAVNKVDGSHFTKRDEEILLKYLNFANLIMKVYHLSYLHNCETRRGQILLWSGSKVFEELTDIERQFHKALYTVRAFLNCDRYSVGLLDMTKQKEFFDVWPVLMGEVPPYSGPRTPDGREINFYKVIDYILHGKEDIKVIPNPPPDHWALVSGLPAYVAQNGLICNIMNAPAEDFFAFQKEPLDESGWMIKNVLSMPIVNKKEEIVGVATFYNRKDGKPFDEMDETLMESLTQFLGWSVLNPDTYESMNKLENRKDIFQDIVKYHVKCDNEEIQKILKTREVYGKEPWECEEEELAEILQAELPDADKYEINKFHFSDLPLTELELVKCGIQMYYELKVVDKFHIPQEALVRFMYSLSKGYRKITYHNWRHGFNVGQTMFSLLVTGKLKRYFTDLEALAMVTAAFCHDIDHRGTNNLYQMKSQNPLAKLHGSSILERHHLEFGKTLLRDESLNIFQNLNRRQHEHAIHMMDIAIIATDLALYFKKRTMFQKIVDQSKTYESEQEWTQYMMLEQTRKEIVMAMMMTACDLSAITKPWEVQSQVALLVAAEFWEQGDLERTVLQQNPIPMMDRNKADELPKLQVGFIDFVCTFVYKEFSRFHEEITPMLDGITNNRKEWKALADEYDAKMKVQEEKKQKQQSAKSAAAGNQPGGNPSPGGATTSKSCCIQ
Sequence of D(1B) dopamine receptor (P21918 whole entry): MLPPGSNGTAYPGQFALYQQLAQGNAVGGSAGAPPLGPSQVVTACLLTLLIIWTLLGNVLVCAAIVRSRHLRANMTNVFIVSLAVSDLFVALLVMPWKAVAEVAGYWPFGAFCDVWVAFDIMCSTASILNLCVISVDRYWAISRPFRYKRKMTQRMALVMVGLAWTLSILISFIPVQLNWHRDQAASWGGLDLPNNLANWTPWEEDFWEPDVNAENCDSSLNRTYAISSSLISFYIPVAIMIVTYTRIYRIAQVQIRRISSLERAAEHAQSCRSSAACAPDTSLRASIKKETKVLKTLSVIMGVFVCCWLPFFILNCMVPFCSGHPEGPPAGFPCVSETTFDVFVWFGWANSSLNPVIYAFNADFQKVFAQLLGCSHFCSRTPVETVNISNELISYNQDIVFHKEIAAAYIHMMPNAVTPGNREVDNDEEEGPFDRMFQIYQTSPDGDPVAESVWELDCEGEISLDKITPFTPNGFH

Structure (SMILES): COc1cc2nccc(Oc3ccc(NC(=O)C4(C(=O)Nc5ccc(F)cc5)CC4)cc3)c2cc1OC [CABOZANTINIB]
AC50 [1]: > 30 µM
AC50 (Thromboxane A2 receptor): 5.52 µM

AC50 [2]: > 30 µM
AC50 [3]: > 30 µM
AC50 [4]: > 30 µM
AC50 [5]: > 30 µM
AC50 [6]: > 30 µM
AC50 [7]: > 30 µM
Structure (SMILES): CC(C(=O)O)c1ccc2c(c1)[nH]c1ccc(Cl)cc12 (stereo not given) [CARPROFEN]

AC50 [8]: > 10 µM
AC50 (D(1B) dopamine receptor): > 10 µM
Structure (SMILES): N[C@@H](CC(=O)N1CCn2c(nnc2C(F)(F)F)C1)Cc1cc(F)c(F)cc1F [SITAGLIPTIN]

AC50 [2]: > 3 µM
AC50 [3]: > 30 µM
AC50 [4]: > 10 µM
AC50 [5]: > 10 µM
AC50 [6]: > 3 µM
AC50 [7]: > 30 µM
Structure (SMILES): CCN(CC)CCNC(=O)c1c(C)[nH]c(/C=C2\C(=O)Nc3ccc(F)cc32)c1C [SUNITINIB]

Structure (SMILES): C=CC[C@@H]1/C=C(\C)C[C@H](C)C[C@H](OC)[C@H]2O[C@@](O)(C(=O)C(=O)N3CCCC[C@H]3C(=O)O[C@H](/C(C)=C/[C@@H]3CC[C@@H](O)[C@H](OC)C3)[C@H](C)[C@@H](O)CC1=O)[C@H](C)C[C@@H]2OC [TACROLIMUS ANHYDROUS]
AC50 (Thromboxane A2 receptor): 10 µM

Structure (SMILES): COc1cc2nc(N3CCN(C(=O)C4CCCO4)CC3)nc(N)c2cc1OC (stereo not given) [TERAZOSIN]
AC50 [1]: 29 µM

Structure (SMILES): Cc1onc(-c2ccccc2)c1-c1ccc(S(N)(=O)=O)cc1 [VALDECOXIB]
AC50 [8]: > 10 µM
AC50 (D(1B) dopamine receptor): > 10 µM
